# Laboratory results taken from US20090221540A1, “Method of Treating An Acute Vascular Disorder” (PANTARHEI BIOSCIENCE B.V., priority 2006, published 2009).
# Like-named read-outs stand apart in the source and are kept apart here.
# Key:
# [1] = test system: coronary and cerebral arteries; conditions: in vitro; cited from earlier work
# [2] = single oral dose pharmacokinetics study of estetrol in healthy postmenopausal volunteers; assay type: in vivo, human; conditions: for Cmax: po
# Protocol: (§1) A double-blind, randomized, placebo-controlled, single dose study was performed to determine the safety, tolerability and pharmacokinetics of 1, 10 and 100 mg orally administered estetrol in healthy postmenopausal volunteers (menopause defined as ≧12 months amenorrhea or six months amenorrhea with serum FSH levels ≧40 IU/L and serum E2<73 pmol/L), a Body Mass Index of 18-30 kg/m^2, non-smoking, good physical and mental health as judged by the investigator determined by medical history, physical examination, clinical laboratory, vital signs and ECG recording). In each dose group, six subjects received estetrol treatment and two subjects received placebo.
# Estetrol and placebo medication was formulated as a solution (propylene glycol/water mixture) and was delivered in separate bottles for each volunteer. Bottles contained 1 mg or 10 mg estetrol per 50 ml for subjects of the groups that received 1 mg or 10 mg estetrol and 100 mg per 200 ml for the group receiving 100 mg estetrol.
# (§2) Screening took place within two weeks before investigational drug administration. During and after drug administration, subjects were admitted to a Clinical Pharmacology Unit for approximately 60 hours for intensive safety monitoring. Safety and tolerability were documented by monitoring (serious) adverse events, physical examinations including vital signs, and safety laboratory assessments (hematology, biochemistry, urinalysis). Frequent blood sampling (within the range of 15 minutes to 168 hours) was performed to assess estetrol plasma concentration and pharmacokinetic variables. For this, plasma samples were subjected to liquid-liquid extraction (hexane and diethyl ether) and further subjected to HPLC analysis (Perkin Elmer 200) and tandem mass spectrometry using a PE Sciex 4000 tandem mass spectrometer and APCI interface. With each sample batch, a calibration curve with 6 calibrators was recorded. The calibration curve was calculated using linear regression (correlation coefficient >0.98), which permitted quantification of estetrol plasma concentrations.
# [3] = safety and tolerability of single oral doses of estetrol in healthy postmenopausal volunteers; assay type: in vivo, human
# Protocol: as §1, §2
# [4] = test system: angina pectoris induced by coronary artery disease; test: clinical trial of on demand oral estetrol versus placebo in angina pectoris; assay type: in vivo, human; conditions: 100 mg per dose
# Protocol: A clinical trial is conducted with single dose, on demand oral estetrol administration of 100 mg in subjects suffering from documented angina pectoris and is compared to placebo treatment. Additionally, patients in this trial are offered to use their standard on demand medication, e.g. nitroglycerin. Hundred patients, males and females, with a diagnosis of angina pectoris induced by coronary artery disease, substantiated by positive dynamic tests of myocardial ischaemia, participate in the clinical trial. Patients are selected according to the following inclusion (I) and exclusion (E) criteria: Patients with clear angina pectoris diagnosis (I), patients having chest pain attacks more than two times a week (I). Patients with active myocardial infarct or other cardiopulmonary heart disease, such as severe psychoneurosis, menopausal syndrome and chest pain caused by cervical spondylopathy (E), patients of angina pectoris combined with hypertension (bloodpressure >24/14.87 Kpa) (E), patients of severe cardiopulmonary function deficiency, severe arrhythmia, abnormal liver and renal function and/or hematopoietic disease (E), breast-feeding women and patients with a known history of allergic disease (E), patients younger than 18 or older than 70 (E).
# The diagnostic standard for angina pectoris severity is used to describe baseline patient characteristics and subsequently to monitor treatment efficacy (see below).
# Low-grade: Typical attack of angina pectoris, which usually lasts a few minutes and occurs 1-3 times a day. The attack is not severe, but the patient sometimes needs to take nitroglycerin. Mid-grade: Angina attack occurs more than 3 times everyday and lasts several to ten minutes every time. The pain is more severe than that of the low-grade attack and the patient generally needs sublingual nitroglycerin. High-grade: Angina attack occurs frequently daily. It lasts longer and more seriously. Routine life is affected. The patient needs to use nitroglycerin frequently.
# The diagnostic standard for angina pectoris types is used to describe baseline characteristics and classify patient types.
# Exertionally-induced angina pectoris: The transient attack of chest pain is caused typically by exertion or other conditions that increase myocardial oxygen demands. The pain normally disappears rapidly after rest or administration of sublingual nitroglycerin. Spontaneous angina pectoris: The attack of chest pain is not obviously related to increase of myocardial oxygen consumption. Compared with tiredness-induced angina pectoris, the pain lasts longer and is more severe. It can not be easily alleviated by nitroglycerin. Mixed Angina Pectoris: Spontaneous angina pectoris can come with tiredness-induced angina pectoris and is classified as mixed angina pectoris. […]
# migraine = test: double-blind, placebo-controlled, multiple attack clinical study of on demand oral estetrol in migraine; assay type: in vivo, human
# Protocol: A double-blind, placebo-controlled, multiple attack clinical study is conducted with single dose, on demand oral estetrol administration in adult volunteers (20 females and 20 males) each of whom is seeking migraine relief. Participating subjects show at least a 1-year history of migraine as is defined by International Headache Society criteria (IHS; Headache Classification Committee of the International Headache Society, 1988, Cephalalgia 8 (Suppl. 7):19-28) and report regularly occurring migraines with episodes of pain, photophobia and nausea. Each participant receives blinded medication in two differently labeled bottles, filled with tablets. One bottle comprises tablets that contain 100 mg estetrol, whilst the other bottle contains identical placebo tablets. Participants are allowed to choose from which bottle to orally ingest a tablet at the moment the first symptoms of a migraine attack become apparent. Patients are asked to keep daily records stating the number of migraine attacks, severity of attacks, duration of attacks and use of medication (bottle 1 or bottle 2) for the entire study period of 2 months.
# [5] = test system: erectile dysfunction primarily due to vascular causes; test: clinical trial of on demand oral estetrol versus placebo in erectile dysfunction (SFQ); assay type: in vivo, human; conditions: 100 mg per dose
# Protocol: As a novel method single dose, on demand oral estetrol administration is tested to treat erectile dysfunction and compared to placebo treatment. A clinical trial is performed in 20 subjects, experiencing erectile dysfunction that is primarily due to vascular causes and in whom intracavernous injection of either papaverine or phentolamine has been previously proven successful in restoring erectile function. Ten subjects receive estetrol medication (100 mg per dose) and 10 subjects receive placebo medication in this outclinic study. Subjects with mild, moderate as well as severe symptoms of erectile dysfunction are instructed on the use of investigational drug medication, which is preferentially being taken 15 minutes to 2 hours before sexual activity. At the start of the trial, subjects are asked to fill out a baseline Sexual Functioning Questionnaire (SFQ). The SFQ is used as the primary endpoint, since this is a self-administered questionnaire and designed to measure changes in sexual function (Smith et al., 2002, British J. Psych., 181:49-55). It asks detailed questions about libido, physical arousal (erection), masturbation, orgasm and ejaculation. It is designed such that higher scores indicate greater dysfunction. Typically total normal controls scores are less than 14 and sexually disfunctioning patients show total scores of more than 18 (Smith et al., 2002, British J. Psych., 181:49-55). […] At the end of the study period at 4 weeks, subject's responses to SFQ survey questions are compared to SFQ responses at baseline. For separate SFQ variables, a comparison is made of those subjects who initially show a bad baseline score. The results are then pooled and expressed as the percentage of subjects with improvement.
smiles,measurement,setting,value
C[C@]12CC[C@@H]3c4ccc(O)cc4CC[C@H]3[C@@H]1CC[C@@H]2O [17β-estradiol],effect on coronary and cerebral arteries,[1],relaxant effect
"C[C@]12CC[C@@H]3c4ccc(O)cc4CC[C@H]3[C@@H]1[C@@H](O)[C@@H](O)[C@@H]2O [estetrol, 1,3,5 (10)-estratrien-3,15α,16α,17β-tetrol]",time of maximum plasma concentrations post-dosing,[2]; 1 mg oral dose group,15 min
same,Cmax,"[2]; female, human, plasma, 1 mg, 1 mg oral estetrol, read-out: Cmax (median)",0.52 ng/mL
same,Cmax,"[2]; female, human, plasma, 1 mg, 1 mg oral estetrol, read-out: Cmax (range)",0.39 to 1.2 ng/mL
same,Cmax,"[2]; female, human, plasma, 10 mg, 10 mg oral estetrol, read-out: Cmax (median)",9.4 ng/mL
same,Cmax,"[2]; female, human, plasma, 10 mg, 10 mg oral estetrol, read-out: Cmax (range)",5.4 to 11.6 ng/mL
same,Cmax,"[2]; female, human, plasma, 100 mg, 100 mg oral estetrol, read-out: Cmax (median)",148 ng/mL
same,Cmax,"[2]; female, human, plasma, 100 mg, 100 mg oral estetrol, read-out: Cmax (range)",119 to 213 ng/mL
same,half-life,"[2]; female, human, plasma, single oral dose, final elimination phase, read-out: terminal half-life (converted)",~28 h
same,gastro-intestinal absorption,"[2]; oral dosing 1, 10 and 100 mg",good gastro-intestinal absorption
same,inter-subject variability of pharmacokinetic profile,"[2]; oral dosing 1, 10 and 100 mg",low inter-subject variability
same,speed of absorption,[2]; single oral dose,extremely fast
same,start of slow phase of final elimination post-dosing,[2]; single oral dose,approximately 24 hours
same,"changes in vital signs, haematology, biochemistry or urinalysis","[3]; 1, 10 and 100 mg estetrol",no clinically significant changes
same,severe or serious adverse events,"[3]; 1, 10 and 100 mg estetrol",No severe or serious adverse events
same,safety and tolerability profile,"[3]; single oral doses of 1, 10 and 100 mg",safe and well tolerated
same,patient-reported effect on angina pectoris symptoms,[4]; on demand oral,relief of angina pectoris symptoms
same,side effects versus placebo,"[4]; on demand oral, 4 weeks",no obvious side effects
same,use of nitroglycerin versus placebo arm,"[4]; on demand oral, 4 weeks",significantly lower than in the placebo arm
same,"improvement of exercise tolerance, ability to extend the duration of walking and quality of life",[4]; versus placebo,statistically more improvement
same,headache and relief of migraine symptoms versus baseline analgesic and/or triptan-type medication,migraine; 100 mg estetrol tablets,less headache and more quicker relief of migraine symptoms
same,side effects directly related to investigational drug,"migraine; 100 mg estetrol tablets, on demand, 2 months",No apparent side effects
same,"tablet use by participants, estetrol versus placebo","migraine; free choice between blinded bottles, 2 months",significantly more estetrol containing tablets than placebo tablets
same,improvement in satisfaction with overall sex life versus placebo,[5]; SFQ at 4 weeks,more subjects report improvement
same,percentage of subjects with improvement in the ability to develop and maintain erections versus placebo,[5]; SFQ at 4 weeks versus baseline,higher percentage of subjects that show improvement
same,tolerability,"[5]; on demand oral, 4 weeks",well tolerated
